PMC5241873, “The clinically approved antiviral drug sofosbuvir inhibits Zika virus replication” (Scientific Reports, 2017)

Assays:
[1] = test system: T1, ZIKV RNA polymerase (ZVRP), partially purified from ZIKV-infected BHK-21 cells; assay: RdRp assay, labelled UTP incorporation on ZIKV RNA, ALPHA detection; assay type: biochemical, Zika virus; conditions: 0.4 mM each ATP, GTP, CTP and labelled UTP; 3 mM MgCl2; pH 7.3; 30 °C; 1 h; partially purified enzyme
T1 construct: gene NS5; mature NS5 from the genome polyprotein; native, partially purified from infected BHK-21 cells (100,000 x g supernatant, DEAE- and phospho-cellulose)

[2] = test system: T2, recombinant ZVRP (C-terminal portion); assay: as above; assay type: biochemical, Zika virus; conditions: 0.4 mM each ATP, GTP, CTP and labelled UTP; 3 mM MgCl2; pH 7.3; 30 °C; 1 h
T2 construct: gene NS5; pET-41b+ BamHI/SacI, N-terminal GST tag, E. coli BL21; B3U3M3 is printed for the 3D model only

Row | SMILES | IC50 [1] [nM] | IC50 [2] [nM]
1 | Cc1cn([C@H]2C[C@H](N=[N+]=[N-])[C@@H](COP(=O)(O)OP(=O)(O)OP(=O)(O)O)O2)c(=O)[nH]c1=O [AZT-TP, AZT triphosphate] | > 10000 | > 10000
2 | NC(=O)c1ncn([C@@H]2O[C@H](COP(=O)(O)OP(=O)(O)OP(=O)(O)O)[C@@H](O)[C@H]2O)n1 [RTP, ribavirin triphosphate] | 210 ± 60 | 620 ± 50
3 | C[C@@]1(F)[C@H](O)[C@@H](COP(=O)(O)OP(=O)(O)OP(=O)(O)O)O[C@H]1n1ccc(=O)[nH]c1=O [STP, β-d-2′-deoxy-2′-α-fluoro-2′-β-C-methyluridine triphosphate] | 380 ± 30 | 610 ± 80
